Data on five molecules can be found in ChEMBL document CHEMBL1201862, “PubChem BioAssay data set” (2004).

SMILES strings stand for the structures. Activity calls are given as the source filed them.

In data set [1] the target is T1, Neuropeptide Y receptor type 1 (Homo sapiens, UniProt P25929).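 Also: HEK293 cells with a CNG channel challenged with NPY then isoproterenol; potency as antagonist that reverses NPY suppression of cAMP signal.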
T1 sequence (P25929 whole entry): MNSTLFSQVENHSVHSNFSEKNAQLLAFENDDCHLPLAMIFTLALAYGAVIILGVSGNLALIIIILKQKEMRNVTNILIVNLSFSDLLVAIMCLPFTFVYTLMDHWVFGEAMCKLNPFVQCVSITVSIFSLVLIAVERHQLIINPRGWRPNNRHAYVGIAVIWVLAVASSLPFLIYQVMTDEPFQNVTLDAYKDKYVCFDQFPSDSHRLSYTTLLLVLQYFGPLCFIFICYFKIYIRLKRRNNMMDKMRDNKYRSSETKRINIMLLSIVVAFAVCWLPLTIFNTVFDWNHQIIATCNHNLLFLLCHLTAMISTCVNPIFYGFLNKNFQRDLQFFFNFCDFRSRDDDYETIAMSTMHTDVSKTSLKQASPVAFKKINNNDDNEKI
Type of data set: functional.

The target in data set [2] is T2, Neuropeptide Y receptor type 2 (Homo sapiens, UniProt P49146).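 Also: HEK293 cells expressing the receptor and a CNG channel; stimulus was NPY near EC95 followed by isoproterenol to raise cAMP; antagonist potency measured as restoring cAMP signal that NPY suppresses.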
T2 sequence (P49146 whole entry): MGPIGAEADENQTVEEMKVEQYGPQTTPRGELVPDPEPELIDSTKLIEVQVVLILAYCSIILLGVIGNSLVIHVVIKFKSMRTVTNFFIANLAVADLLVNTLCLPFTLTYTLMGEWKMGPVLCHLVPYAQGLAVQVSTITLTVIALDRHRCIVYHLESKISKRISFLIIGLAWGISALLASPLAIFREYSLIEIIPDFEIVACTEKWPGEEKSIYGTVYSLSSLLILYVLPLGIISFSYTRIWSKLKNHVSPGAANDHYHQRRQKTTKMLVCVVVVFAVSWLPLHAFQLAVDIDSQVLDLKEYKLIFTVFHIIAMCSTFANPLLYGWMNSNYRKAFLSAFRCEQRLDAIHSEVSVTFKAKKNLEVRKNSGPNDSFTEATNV
The data set is classed as functional, cell-based.

Data set [3] has as its target T3, High affinity choline transporter 1 (Homo sapiens, UniProt Q9GZV3).
T3 sequence (Q9GZV3 whole entry): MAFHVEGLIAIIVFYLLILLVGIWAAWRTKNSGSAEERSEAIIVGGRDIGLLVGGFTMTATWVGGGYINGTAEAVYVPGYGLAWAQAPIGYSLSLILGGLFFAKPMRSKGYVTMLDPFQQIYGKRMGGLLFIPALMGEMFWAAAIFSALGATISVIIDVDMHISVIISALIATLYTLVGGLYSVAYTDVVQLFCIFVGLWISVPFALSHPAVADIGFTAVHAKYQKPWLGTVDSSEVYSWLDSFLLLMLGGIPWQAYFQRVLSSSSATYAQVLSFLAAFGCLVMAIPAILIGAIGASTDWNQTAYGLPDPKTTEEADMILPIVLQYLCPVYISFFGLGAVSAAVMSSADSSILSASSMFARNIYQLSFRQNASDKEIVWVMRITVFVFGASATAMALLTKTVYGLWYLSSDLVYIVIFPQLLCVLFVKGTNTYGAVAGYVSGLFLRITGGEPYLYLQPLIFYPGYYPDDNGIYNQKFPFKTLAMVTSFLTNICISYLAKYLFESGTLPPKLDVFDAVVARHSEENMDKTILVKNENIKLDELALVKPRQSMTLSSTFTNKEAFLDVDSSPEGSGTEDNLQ
The experiment in a line: CHT activators, dose response, cell-based, 10-point CRC, membrane potential dye (AID 602376). The data set is classed as functional.

Data set [4] has as its target Protein disulfide-isomerase (Homo sapiens, UniProt P07237). As to the kind of experiment: PDI inhibitors, insulin aggregation turbidity, dose response, biochemical, absorbance, cherry-picked samples (AID 602350). The data set is classed as functional.
Data set [5] deals with Glycogen synthase kinase-3 alpha (Homo sapiens, UniProt P49840). The experiment in a line: Inhibition of Human GSK-3 alpha Activity Measured in Biochemical System Using Microfluidics - 2063-06_Inhibitor_Dose_DryPowder_Activity_Set2. [Related pubchem assays (depositor defined):AID2709].
Glycogen synthase kinase-3 alpha, sequence (P49840 whole entry): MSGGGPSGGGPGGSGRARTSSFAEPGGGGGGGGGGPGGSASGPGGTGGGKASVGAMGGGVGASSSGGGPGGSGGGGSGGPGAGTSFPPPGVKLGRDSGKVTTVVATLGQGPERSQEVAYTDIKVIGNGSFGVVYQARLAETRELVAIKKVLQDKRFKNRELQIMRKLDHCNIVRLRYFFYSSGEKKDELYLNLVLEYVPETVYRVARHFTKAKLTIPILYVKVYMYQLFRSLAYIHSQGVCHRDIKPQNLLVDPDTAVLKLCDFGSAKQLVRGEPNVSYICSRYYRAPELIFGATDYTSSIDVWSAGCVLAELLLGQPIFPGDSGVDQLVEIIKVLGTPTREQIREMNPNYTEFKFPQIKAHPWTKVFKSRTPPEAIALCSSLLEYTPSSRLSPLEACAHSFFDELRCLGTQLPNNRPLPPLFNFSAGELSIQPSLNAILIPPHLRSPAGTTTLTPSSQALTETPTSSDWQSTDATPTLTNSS
Data set [6] has as its target Glycogen synthase kinase-3 beta (Homo sapiens, UniProt P49841). The experiment in a line: Inhibition of Human GSK-3 beta Activity Measured in Biochemical System Using Microfluidics - 2063-05_Inhibitor_Dose_DryPowder_Activity_Set2. [Related pubchem assays (depositor defined):AID2709].
For the next data set, the target named is Cytochrome P450 2D6 (Homo sapiens, UniProt P10635).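 Also: CYP2D6 member of a cytochrome P450 panel assay.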
Cytochrome P450 2D6, sequence (P10635 whole entry): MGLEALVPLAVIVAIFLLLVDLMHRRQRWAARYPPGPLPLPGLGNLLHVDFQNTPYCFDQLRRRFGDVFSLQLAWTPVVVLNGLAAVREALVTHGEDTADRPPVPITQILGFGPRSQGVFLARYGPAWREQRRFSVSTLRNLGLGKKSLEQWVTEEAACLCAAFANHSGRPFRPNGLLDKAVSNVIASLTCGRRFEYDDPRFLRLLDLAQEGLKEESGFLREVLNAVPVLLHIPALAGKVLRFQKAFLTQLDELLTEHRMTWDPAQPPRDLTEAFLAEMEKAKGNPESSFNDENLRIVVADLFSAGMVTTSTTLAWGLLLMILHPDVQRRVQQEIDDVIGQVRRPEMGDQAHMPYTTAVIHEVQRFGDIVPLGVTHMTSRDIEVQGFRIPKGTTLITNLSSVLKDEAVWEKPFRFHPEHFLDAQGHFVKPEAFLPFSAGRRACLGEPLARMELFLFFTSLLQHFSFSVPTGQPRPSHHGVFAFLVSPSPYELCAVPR
For another data set, the target named is Cytochrome P450 2C9 (Homo sapiens, UniProt P11712).
Cytochrome P450 2C9, sequence (P11712 whole entry): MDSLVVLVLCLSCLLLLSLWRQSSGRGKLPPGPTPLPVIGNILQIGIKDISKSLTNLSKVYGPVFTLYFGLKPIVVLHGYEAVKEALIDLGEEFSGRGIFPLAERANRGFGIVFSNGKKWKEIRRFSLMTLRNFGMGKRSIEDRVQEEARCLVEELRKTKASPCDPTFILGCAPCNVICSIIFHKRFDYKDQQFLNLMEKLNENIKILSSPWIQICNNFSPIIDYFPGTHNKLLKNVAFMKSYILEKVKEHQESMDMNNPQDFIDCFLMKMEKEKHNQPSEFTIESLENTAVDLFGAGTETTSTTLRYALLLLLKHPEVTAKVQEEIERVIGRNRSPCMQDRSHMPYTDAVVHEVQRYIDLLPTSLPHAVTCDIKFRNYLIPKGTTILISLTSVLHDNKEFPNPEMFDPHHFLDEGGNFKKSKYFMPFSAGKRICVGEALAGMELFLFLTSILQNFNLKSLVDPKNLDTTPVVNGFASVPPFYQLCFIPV
The target of a further data set is T4, Caspase-3 (Homo sapiens, UniProt P42574).
T4 sequence (P42574 whole entry): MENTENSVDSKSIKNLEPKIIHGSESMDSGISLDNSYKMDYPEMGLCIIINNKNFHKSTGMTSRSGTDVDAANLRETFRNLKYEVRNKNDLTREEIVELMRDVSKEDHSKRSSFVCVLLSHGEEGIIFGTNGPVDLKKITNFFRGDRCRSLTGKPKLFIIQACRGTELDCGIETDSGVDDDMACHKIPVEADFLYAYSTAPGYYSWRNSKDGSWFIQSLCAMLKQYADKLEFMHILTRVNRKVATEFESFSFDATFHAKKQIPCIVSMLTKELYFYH
The experiment in a line: caspase-3 inhibitors as off-family protease, SAR follow-up, selectivity assay for SENP protease inhibitor project, biochemical, luminescence, set 2 (AID 588599). Type of data set: functional.

The target of data set [7] is T5, Sentrin-specific protease 8 (Homo sapiens, UniProt Q96LD8).
T5 sequence (Q96LD8 whole entry): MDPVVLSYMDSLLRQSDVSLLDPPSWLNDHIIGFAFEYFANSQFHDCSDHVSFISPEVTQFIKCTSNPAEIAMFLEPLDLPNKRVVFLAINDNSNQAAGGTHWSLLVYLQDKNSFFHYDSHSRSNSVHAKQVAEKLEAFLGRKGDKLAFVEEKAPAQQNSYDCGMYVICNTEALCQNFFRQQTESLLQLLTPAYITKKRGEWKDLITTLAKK
The experiment in a line: SENP8 protease inhibitors, SAR follow-up, biochemical, luminescence, set 2 (AID 588601). Type of data set: functional.

The target in data set [8] is T6, Sentrin-specific protease 7 (Homo sapiens, UniProt Q9BQF6).
T6 sequence (Q9BQF6 whole entry): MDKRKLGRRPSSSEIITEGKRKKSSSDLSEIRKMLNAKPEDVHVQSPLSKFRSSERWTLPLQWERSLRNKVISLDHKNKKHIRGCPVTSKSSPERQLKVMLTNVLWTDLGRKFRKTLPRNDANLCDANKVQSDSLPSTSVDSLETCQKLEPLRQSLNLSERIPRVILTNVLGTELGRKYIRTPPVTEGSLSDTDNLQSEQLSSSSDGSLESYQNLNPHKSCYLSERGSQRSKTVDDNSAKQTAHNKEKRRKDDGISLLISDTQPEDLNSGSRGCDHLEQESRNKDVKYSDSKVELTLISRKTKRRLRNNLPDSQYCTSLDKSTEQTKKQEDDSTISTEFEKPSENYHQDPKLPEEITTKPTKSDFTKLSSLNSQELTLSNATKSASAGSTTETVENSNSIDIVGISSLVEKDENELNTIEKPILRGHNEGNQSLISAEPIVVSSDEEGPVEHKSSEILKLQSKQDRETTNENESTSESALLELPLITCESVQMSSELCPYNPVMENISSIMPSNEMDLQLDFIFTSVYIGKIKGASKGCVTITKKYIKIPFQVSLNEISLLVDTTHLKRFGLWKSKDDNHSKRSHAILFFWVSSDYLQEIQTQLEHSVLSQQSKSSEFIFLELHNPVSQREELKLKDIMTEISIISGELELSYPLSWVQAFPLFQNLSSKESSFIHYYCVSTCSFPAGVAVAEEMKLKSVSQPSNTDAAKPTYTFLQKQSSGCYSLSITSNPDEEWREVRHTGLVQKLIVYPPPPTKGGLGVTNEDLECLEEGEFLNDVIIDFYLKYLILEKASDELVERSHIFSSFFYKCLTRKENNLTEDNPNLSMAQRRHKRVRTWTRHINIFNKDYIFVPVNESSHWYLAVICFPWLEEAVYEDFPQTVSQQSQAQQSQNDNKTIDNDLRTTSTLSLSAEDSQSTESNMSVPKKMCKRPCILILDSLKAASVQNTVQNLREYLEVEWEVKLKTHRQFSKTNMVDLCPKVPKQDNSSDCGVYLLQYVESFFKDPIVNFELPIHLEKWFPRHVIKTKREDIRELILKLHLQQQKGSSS
As to the kind of experiment: SENP7 protease inhibitors, SAR follow-up, biochemical, luminescence, set 2 (AID 588600). The data set is classed as functional.

The target in data set [9] is T7, Sentrin-specific protease 6 (Homo sapiens, UniProt Q9GZR1).
T7 sequence (Q9GZR1 whole entry): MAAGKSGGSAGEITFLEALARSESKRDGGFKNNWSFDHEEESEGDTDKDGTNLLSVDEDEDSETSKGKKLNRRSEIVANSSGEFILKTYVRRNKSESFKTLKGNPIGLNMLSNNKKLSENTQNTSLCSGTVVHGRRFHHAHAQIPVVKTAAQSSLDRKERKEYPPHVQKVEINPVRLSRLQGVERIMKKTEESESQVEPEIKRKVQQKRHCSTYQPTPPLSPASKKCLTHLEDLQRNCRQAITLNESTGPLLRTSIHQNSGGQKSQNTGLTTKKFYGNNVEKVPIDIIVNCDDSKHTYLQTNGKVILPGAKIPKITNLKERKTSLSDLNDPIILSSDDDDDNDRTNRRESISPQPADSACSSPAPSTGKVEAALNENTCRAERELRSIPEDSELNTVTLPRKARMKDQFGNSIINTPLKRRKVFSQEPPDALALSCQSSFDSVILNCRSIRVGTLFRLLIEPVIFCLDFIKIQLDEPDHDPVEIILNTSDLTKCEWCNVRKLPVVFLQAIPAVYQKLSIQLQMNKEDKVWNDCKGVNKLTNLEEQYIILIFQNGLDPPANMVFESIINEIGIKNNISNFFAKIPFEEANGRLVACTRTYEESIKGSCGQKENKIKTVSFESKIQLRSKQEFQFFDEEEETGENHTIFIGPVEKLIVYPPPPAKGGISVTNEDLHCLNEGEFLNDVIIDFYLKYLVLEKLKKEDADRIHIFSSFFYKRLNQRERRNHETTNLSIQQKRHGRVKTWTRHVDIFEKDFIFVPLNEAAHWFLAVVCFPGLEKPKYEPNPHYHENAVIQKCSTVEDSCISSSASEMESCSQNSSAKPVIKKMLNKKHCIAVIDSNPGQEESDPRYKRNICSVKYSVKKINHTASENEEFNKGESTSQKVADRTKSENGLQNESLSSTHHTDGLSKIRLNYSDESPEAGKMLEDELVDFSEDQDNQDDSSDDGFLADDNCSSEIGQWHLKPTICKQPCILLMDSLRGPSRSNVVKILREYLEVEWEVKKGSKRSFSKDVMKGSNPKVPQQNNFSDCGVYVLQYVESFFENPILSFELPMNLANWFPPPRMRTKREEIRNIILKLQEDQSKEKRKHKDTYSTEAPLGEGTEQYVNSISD
As to the kind of experiment: SENP6 protease inhibitors, SAR follow-up, biochemical, luminescence, set 2 (AID 588598). The data set is classed as functional.

Data set [10] addresses Vascular endothelial growth factor receptor 2 (Homo sapiens, UniProt P35968). The data set is classed as functional.
For a further data set, the target named is Aurora kinase B (Homo sapiens, UniProt Q96GD4). The data set is classed as functional.
Aurora kinase B, sequence (Q96GD4 whole entry): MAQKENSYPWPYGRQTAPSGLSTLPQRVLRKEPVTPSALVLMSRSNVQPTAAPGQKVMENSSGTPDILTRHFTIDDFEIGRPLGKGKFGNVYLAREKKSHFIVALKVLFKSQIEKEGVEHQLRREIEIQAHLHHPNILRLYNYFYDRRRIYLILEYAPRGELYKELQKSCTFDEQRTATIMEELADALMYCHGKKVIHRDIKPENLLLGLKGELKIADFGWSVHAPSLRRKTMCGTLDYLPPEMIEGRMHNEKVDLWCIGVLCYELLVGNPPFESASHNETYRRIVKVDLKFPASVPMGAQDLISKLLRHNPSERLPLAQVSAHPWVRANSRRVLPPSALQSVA

Vascular endothelial growth factor receptor 2, sequence (P35968 whole entry): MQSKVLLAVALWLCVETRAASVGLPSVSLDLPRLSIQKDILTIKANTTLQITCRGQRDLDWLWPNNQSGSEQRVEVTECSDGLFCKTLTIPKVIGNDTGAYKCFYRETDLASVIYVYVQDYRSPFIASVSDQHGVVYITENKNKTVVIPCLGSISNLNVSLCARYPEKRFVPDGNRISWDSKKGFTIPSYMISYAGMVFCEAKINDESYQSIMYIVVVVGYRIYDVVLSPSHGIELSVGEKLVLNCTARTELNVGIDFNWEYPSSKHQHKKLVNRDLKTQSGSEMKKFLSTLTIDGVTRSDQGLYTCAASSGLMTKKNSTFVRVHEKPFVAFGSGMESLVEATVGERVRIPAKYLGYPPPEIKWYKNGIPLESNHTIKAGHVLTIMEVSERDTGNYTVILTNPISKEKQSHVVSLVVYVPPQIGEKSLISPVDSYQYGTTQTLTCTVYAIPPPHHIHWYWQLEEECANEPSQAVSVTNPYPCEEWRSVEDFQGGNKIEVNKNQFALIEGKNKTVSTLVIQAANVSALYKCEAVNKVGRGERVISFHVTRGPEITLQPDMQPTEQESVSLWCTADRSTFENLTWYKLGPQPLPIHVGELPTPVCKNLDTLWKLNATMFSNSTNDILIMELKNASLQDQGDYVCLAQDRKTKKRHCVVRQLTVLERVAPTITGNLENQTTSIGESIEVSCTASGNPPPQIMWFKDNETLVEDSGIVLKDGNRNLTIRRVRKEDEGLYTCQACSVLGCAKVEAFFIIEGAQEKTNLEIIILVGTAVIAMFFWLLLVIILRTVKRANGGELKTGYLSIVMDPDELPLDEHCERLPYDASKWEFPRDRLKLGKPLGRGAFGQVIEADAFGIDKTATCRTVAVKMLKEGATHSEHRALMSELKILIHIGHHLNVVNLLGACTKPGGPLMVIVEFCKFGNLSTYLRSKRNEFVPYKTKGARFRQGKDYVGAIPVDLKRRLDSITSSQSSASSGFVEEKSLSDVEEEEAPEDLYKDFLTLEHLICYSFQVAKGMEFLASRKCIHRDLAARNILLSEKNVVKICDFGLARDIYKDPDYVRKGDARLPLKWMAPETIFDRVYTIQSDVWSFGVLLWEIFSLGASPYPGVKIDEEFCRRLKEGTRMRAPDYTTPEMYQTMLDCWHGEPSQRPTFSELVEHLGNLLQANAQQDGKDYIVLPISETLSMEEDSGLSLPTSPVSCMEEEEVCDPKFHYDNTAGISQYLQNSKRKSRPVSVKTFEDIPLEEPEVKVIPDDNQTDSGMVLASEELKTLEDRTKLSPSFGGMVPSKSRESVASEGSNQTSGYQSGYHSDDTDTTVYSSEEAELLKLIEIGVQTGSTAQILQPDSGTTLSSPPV
Protein disulfide-isomerase, sequence (P07237 whole entry): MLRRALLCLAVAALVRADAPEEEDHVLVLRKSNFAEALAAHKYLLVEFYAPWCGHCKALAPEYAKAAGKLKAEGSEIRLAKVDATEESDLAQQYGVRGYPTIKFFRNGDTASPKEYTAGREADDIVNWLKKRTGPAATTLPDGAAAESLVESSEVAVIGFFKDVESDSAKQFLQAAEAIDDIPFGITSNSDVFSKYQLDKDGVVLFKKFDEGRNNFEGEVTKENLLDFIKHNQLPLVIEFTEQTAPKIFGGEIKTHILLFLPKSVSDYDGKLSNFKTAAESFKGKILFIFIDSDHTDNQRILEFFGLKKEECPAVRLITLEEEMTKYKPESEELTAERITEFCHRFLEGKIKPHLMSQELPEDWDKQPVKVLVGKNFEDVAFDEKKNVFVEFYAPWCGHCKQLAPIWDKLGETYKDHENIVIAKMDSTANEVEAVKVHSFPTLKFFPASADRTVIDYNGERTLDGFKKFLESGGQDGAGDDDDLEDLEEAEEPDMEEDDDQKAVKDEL
Glycogen synthase kinase-3 beta, sequence (P49841 whole entry): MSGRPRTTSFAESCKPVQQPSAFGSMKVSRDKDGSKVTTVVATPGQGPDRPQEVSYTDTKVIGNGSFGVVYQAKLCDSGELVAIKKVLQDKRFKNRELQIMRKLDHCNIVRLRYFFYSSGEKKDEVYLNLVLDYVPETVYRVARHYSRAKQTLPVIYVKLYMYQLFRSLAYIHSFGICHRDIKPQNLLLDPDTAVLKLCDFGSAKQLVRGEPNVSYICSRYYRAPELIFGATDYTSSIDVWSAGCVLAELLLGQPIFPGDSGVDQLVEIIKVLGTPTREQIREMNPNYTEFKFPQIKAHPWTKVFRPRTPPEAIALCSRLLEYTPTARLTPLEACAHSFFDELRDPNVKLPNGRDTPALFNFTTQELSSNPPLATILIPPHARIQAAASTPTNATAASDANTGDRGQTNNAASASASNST

For `CCC1=Nc2ccc(Br)cc2C(c2ccccc2)N1CC(=O)OC` (centres undefined), the IC50 in data set [1] was 13.2 µM (not active); in [2], > 35 µM (not active). Also, the EC50 in [3] was 14.3 µM (active).
For `C[C@@H]1O[C@@H](O[C@@H]2C(=O)c3c(O)cc(O)cc3O[C@H]2c2ccc(O)c(O)c2)[C@H](O)[C@H](O)[C@H]1O`, the AC50 in data set [4] is 10.2 µM (active).
As for `Cn1c(SCc2nnc(-c3ccc(F)cc3)o2)nnc1C1COc2ccccc2O1` (centres undefined), the AC50 in [5] was 1.33 µM (active); in data set [6], 0.7 µM (active); on Cytochrome P450 2D6 it was 5.01 µM (inconclusive); on Cytochrome P450 2C9, “inconclusive”.
Take `Cc1ccc(-c2cc(CNC(=O)C(=O)c3c[nH]c4ccccc34)no2)cc1`: the IC50 (at Caspase-3; in data set [7]; in data set [8]; in data set [9]) was > 99 µM (inactive) each time.
Take `COc1ccc(-c2cc(-c3ccccc3)nc3ncnc(NC(=O)COCC(=O)O)c23)cc1`: the Ki (in [10]; on Aurora kinase B) was 1.26 µM (active) throughout.

Usually IC50 stands for the concentration that gives 50% inhibition. As a reminder, the EC50 is the concentration giving half of the maximal effect. By AC50 is commonly meant the midpoint of the concentration-response curve, whichever way the signal moves. One may read the Ki as the dissociation constant of the complex between target and ligand, obtained from inhibition or displacement.
